Several values for one entry are separate records, joined by “and”; a condition that tells them apart may be missing. Equal entries are not always repeated.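 Briefly, cells in 96-well plates were exposed to five compound concentrations for 48 h, and endpoints were estimated by linear interpolation. GI50 is the concentration that inhibits growth by half. Definition used: TGI = concentration required for complete inhibition of growth.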
Assays:
Test in all cases: NCI-60 cell line screen, 48 h
[1] = system: CAKI-1 renal
[2] = system: A549 NSCLC
[3] = system: K-562 leukemia
[4] = system: A498 renal
[5] = system: NCI-H226 lung
[6] = system: HOP-62 NSCLC
[7] = system: UO-31 renal
[8] = system: UACC-257 melanoma
[9] = system: OVCAR-5 ovarian
[10] = system: COLO 205 colon

Row | Compound | GI50 [1] | TGI [1] | GI50 [2] [µM] | TGI [2] | GI50 [3] | TGI [3] | GI50 [4] | TGI [4] | GI50 [5] | TGI [5] | GI50 [6] | TGI [6] | GI50 [7] | TGI [7] | GI50 [8] [µM] | TGI [8] | GI50 [9] | TGI [9] | GI50 [10] | TGI [10]
1 | CCCCCCCC(=O)SCC/C=C/[C@@H]1CC(=O)NCc2cccc(n2)CN(Cc2ccc(Cl)cc2)CC(=O)N[C@@H](C(C)C)C(=O)O1 | 28 µM | > 100 µM | 12.1 | 97.7 µM | 11 µM | > 100 µM | 8.67 µM | 22.8 µM | 22 µM | > 100 µM | 5.4 µM | 44.4 µM | 6.27 µM | 48.9 µM | 8.99 | 70.4 µM | 9.98 µM | > 100 µM | 17.6 µM | 42.9 µM
2 | COc1ccc2c(c1)Cc1cc(N=[N+]([O-])c3ccc4c(c3)Cc3cc(OC)ccc3-4)ccc1-2 |  | > 100 µM |  | > 100 µM |  | > 100 µM |  | 95 µM |  | > 100 µM |  | > 100 µM |  | > 100 µM |  | 52.7 µM |  | > 100 µM |  | 28.6 µM
3 | COc1cc(OC)c(Oc2cccc(OC)c2OC)c(OC)c1 |  | > 100 µM |  | > 100 µM |  | > 100 µM |  | > 100 µM |  | > 100 µM |  | > 100 µM |  | > 100 µM |  | > 100 µM |  | > 100 µM |  | > 100 µM
4 | COC(=O)C1=C(O)C(C(=O)OC)[C@@]2(O)[C@@H](C(=O)OC)C(c3ccc(OC(=O)C(Cc4ccccc4)NC(C)=O)cc3)C[C@@H]1[C@@H]2C(=O)OC (stereo partly specified) | 38.7 µM | > 100 µM | 20.6 | 57.5 µM | 19.1 µM | > 100 µM | 24.5 µM | 62.9 µM | 25.5 µM | 75.1 µM | 22.5 µM | 54.3 µM | 35.7 µM | > 100 µM | 13.9 | 50.5 µM | 35 µM | 97.3 µM | 27.9 µM | > 100 µM
5 | COC(=O)c1ccc2c(c1)[n+](=O)c(C(C)=O)c(C(F)(F)F)n2[O-] | 1.94 µM | 5.07 µM | 1.96 | 3.7 µM | 2.31 µM | 7.7 µM | 1.72 µM | 3.3 µM | 1.95 µM | 3.65 µM | 1.94 µM | 3.69 µM | 1.71 µM | 3.15 µM | 1.82 | 3.31 µM | 1.67 µM | 3.11 µM | 1.95 µM | 3.95 µM
6 | C[N+](C)(C)CC(=O)NC(=O)N/N=C\C(CC#N)CN(Cc1ccccc1)Cc1ccccc1 (stereo unspecified) |  | > 100 µM |  | > 100 µM |  | > 100 µM |  | > 100 µM |  | > 100 µM |  | > 100 µM |  | > 100 µM |  | > 100 µM |  | > 100 µM |  | > 100 µM
7 | COc1ccc(NC(=O)CC(=O)n2nc(-c3ccccc3)c(N=Nc3ccc(C)cc3)c2-c2ccccc2)cc1 |  | > 100 µM |  | 63.3 µM |  | > 100 µM |  | > 76.5 µM |  | 58.3 µM |  | 38.4 µM |  | 55.3 µM |  | > 95.8 µM |  | > 100 µM |  | > 100 µM
8 | COC1=CC(=O)c2c(O)c3c(c(O)c2C1=O)CC(C)(O)OC3 (stereo unspecified) |  | 16.5 µM |  | 8.8 µM |  | > 45.3 µM |  | 25.2 µM |  | 37.2 µM |  | 12.7 µM |  | 15.2 µM |  | 4.88 µM |  | 14.6 µM |  | 4.76 µM
9 | COc1cc(Oc2cnc3cc(N)cc(N)c3n2)cc(OC)c1OC | 38.2 µM | > 100 µM | > 100 | > 100 µM | 38.1 µM | > 100 µM | 65.1 µM | > 100 µM | 45.6 µM | > 100 µM | 48.1 µM | > 100 µM | 35 µM | > 100 µM | > 100 | > 100 µM | 23 µM | 62.6 µM | 27.8 µM | 71.6 µM
10 | O=c1cc(N2CCOCC2)oc2c(-c3ccccc3)cccc12 |  | 28.9 µM and 9.16 µM | 6 | > 72.8 µM and 36.7 µM |  | > 100 µM and 79.7 µM | 1.53 µM | 7.54 µM and 13.9 µM |  | 50 µM and 50.6 µM | 5.41 µM | > 100 µM | 1.39 µM |  | 9.06 | 69.2 µM and 60.8 µM | 5.17 µM | > 100 µM and 63.8 µM |  | 36.7 µM and 30.1 µM
11 | Nc1ncnc2c1ncn2C1OC(CO)C(O)C1O (stereo unspecified) |  | > 100 µM and > 450 µM and 74.9 µM | 22.3 | > 388 µM |  | > 450 µM | 93.2 µM and 43.5 µM and 55.1 µM | > 100 µM | > 100 µM and 213 µM and 25.5 µM | > 373 µM | 11.7 µM | > 100 µM and 184 µM and 47.9 µM |  | > 450 µM | > 450 | > 450 µM | > 100 µM and 257 µM and 34.6 µM | > 450 µM | > 100 µM and > 450 µM and 60.3 µM | > 450 µM
12 | CC(C)=CCNc1ncnc2c1ncn2C1OC(COP(=O)(O)O)C(O)C1O (stereo unspecified) | 3.6 µM | > 67.7 µM | 7.39 | > 100 µM | 4.22 µM | > 100 µM | 1.53 µM | 3.3 µM | 4.7 µM | 33.9 µM | 23.5 µM | > 100 µM | 4.1 µM | > 52 µM | > 100 | > 100 µM | 32.9 µM | > 100 µM | 4.59 µM | > 58.8 µM
13 | N=C(N)c1ccc(-c2ccc(-c3ccco3)o2)cc1 | 3.94 µM | 16.6 µM | 4.76 | 18.9 µM | 2.66 µM | 10.4 µM | 6.58 µM | 20 µM | 14.4 µM | 33.1 µM | 10.4 µM | 23 µM | 3.17 µM | 16.3 µM | 1.84 | 3.73 µM | 4.98 µM | 18.8 µM | 1.78 µM | 3.48 µM
14 | COc1ccc(C2CC(c3cccc(Nc4ccnc5cc(Cl)ccc45)c3)=NN2c2ccccc2)cc1 (stereo unspecified) | 0.681 µM | > 100 µM | 2 | > 100 µM | 0.492 µM | 32.3 µM | 2.87 µM | 81.2 µM | 11.3 µM | 63.8 µM | 0.949 µM | 21.3 µM | 0.478 µM | 21.6 µM | 1.36 | 31.4 µM | 11.8 µM | 61.7 µM | 1.43 µM | 8.66 µM
15 | NS(=O)(=O)OC[C@H]1O[C@@H](n2cnc3c(N[C@H]4CCc5ccccc54)ncnc32)[C@H](O)[C@@H]1O | 0.054 µM | 0.181 µM | 0.871 | 3 µM | 0.0369 µM | > 100 µM | 0.0288 µM | 0.124 µM | 0.0285 µM | 0.0863 µM | 0.0569 µM | 0.485 µM | 1.41 µM | 2.88 µM | 0.213 | 0.577 µM | 0.305 µM | 2.24 µM | 0.043 µM | 0.22 µM
16 | CCCCCc1c(C)[nH]c(/C=C2\N=C(c3ccc[nH]3)C=C2Oc2ccc(OC)cc2)c1C | 0.136 µM and 0.0363 µM | 0.449 µM and 0.333 µM | 0.0339 | 0.165 µM | 0.0719 µM and 0.0435 µM | > 100 µM | 0.194 µM and 0.0304 µM | 1.19 µM and 0.234 µM | 0.118 µM and 0.139 µM |  | 0.159 µM and 0.0768 µM | 1.69 µM and 1.49 µM | 0.151 µM and 0.0712 µM | 0.313 µM and 0.232 µM | 0.125 | 0.998 µM | 0.128 µM and 0.0591 µM | 4.56 µM and 2.02 µM | 0.125 µM and 0.028 µM | 0.502 µM and 0.19 µM
17 | COC(=O)c1nc(N)[nH]c(=O)c1-c1ccc(Cl)cc1 |  | > 100 µM |  | > 100 µM |  | > 100 µM |  | > 100 µM |  | > 100 µM |  | > 100 µM |  | > 100 µM |  | > 100 µM |  | > 100 µM |  | > 100 µM
18 | COc1ccc(/C=N\N2C(=O)Cc3ccccc32)cc1 |  | > 100 µM |  | > 100 µM |  | > 100 µM |  | > 100 µM |  | > 100 µM |  | > 100 µM |  | > 100 µM |  | > 100 µM |  | > 100 µM |  | > 100 µM
19 | COc1cc2c3c(c1OC)C1(C=CC(=O)C=C1)CC3N(C(=O)OC(C)(C)C(Cl)(Cl)Cl)CC2 (stereo unspecified) |  | 50.9 µM |  | 49.4 µM |  | 50.2 µM |  | 31.9 µM |  | 33.1 µM |  | 31.9 µM |  | 28.5 µM |  | 26.2 µM |  | 38.4 µM |  | 29 µM
20 | COC1=C(C(=O)OC(C)(C)C)C23CCCCC2(C(C(=O)OC(C)(C)C)=C(OC)C3C(=O)OC(C)(C)C)C1C(=O)OC(C)(C)C (stereo unspecified) |  | > 100 µM |  | > 100 µM |  | > 100 µM |  | > 100 µM |  | > 100 µM |  | > 100 µM |  | > 100 µM |  | > 100 µM |  | > 100 µM |  | 32.8 µM
21 | Oc1ccc(Br)cc1CN1CCN(Cc2ccc(Cl)cc2)CC1 | 22.7 µM | > 100 µM | 25.1 | > 100 µM | 10.2 µM | > 100 µM | 0.4 µM | 45 µM | 20.8 µM | > 100 µM | 36.5 µM | > 100 µM | 9.5 µM | > 100 µM | 16.5 | 59.4 µM | 21.2 µM | 75.2 µM | 21.7 µM | 51.1 µM
22 | COc1ccc(CNCCN2C(=O)c3ccc4c5c(ccc(c35)C2=O)C(=O)N(CCNCc2ccc(OC)cc2)C4=O)cc1 | 1.04 µM | 3.38 µM | 0.329 | 1.28 µM | 0.217 µM | 0.96 µM | 0.647 µM | 2.02 µM | 0.637 µM | 2.28 µM | 0.579 µM | 1.99 µM | 0.501 µM | 1.98 µM | 0.184 | 0.337 µM | 0.428 µM | 1.89 µM | 0.137 µM | 0.281 µM

— PubChem BioAssay (NCI)
